# Reference: patent US20240376163A1, “PEPTIDE FOR INHIBITING CALCINEURIN AND USE THEREOF” (Seoul National University R&DB Foundation, priority 2023, published 2024)
# Tested on: Jurkat T cells
# Test: mRNA sequencing of activated Jurkat T cells
# Assay type: cell-based, human
# Conditions: P + I
sequence,measurement,setting,value
PEITVTPPTP [CABIN1-L-1-2],MSMO1 FPKM,Jurkat T cells,52.664 FPKM
same,MT2A FPKM,Jurkat T cells,409.501 FPKM
same,MXD3 FPKM,Jurkat T cells,20.08 FPKM
same,MYB FPKM,Jurkat T cells,48.107 FPKM
same,MZB1 FPKM,Jurkat T cells,23.597 FPKM
same,N4BP3 FPKM,Jurkat T cells,2.499 FPKM
same,NAA16 FPKM,Jurkat T cells,3.877 FPKM
same,NCKAP1 FPKM,Jurkat T cells,10.157 FPKM
same,NCOA3 FPKM,Jurkat T cells,11.775 FPKM
same,NDRG1 FPKM,Jurkat T cells,128.386 FPKM
same,NDRG2 FPKM,Jurkat T cells,2.149 FPKM
same,NEDD9 FPKM,Jurkat T cells,4.972 FPKM
same,NFATC1 FPKM,Jurkat T cells,3.916 FPKM
same,NFKB1 FPKM,Jurkat T cells,44.661 FPKM
same,NFKB2 FPKM,Jurkat T cells,71.869 FPKM
same,NLRC3 FPKM,Jurkat T cells,5.507 FPKM
same,NME4 FPKM,Jurkat T cells,17.501 FPKM
same,NOTCH2 FPKM,Jurkat T cells,12.916 FPKM
same,NOTCH3 FPKM,Jurkat T cells,0.859 FPKM
same,NPDC1 FPKM,Jurkat T cells,5.64 FPKM
same,NR4A3 FPKM,Jurkat T cells,1.977 FPKM
same,NREP FPKM,Jurkat T cells,6.879 FPKM
same,NRP1 FPKM,Jurkat T cells,14.016 FPKM
same,NSG1 FPKM,Jurkat T cells,3.929 FPKM
same,NSMF FPKM,Jurkat T cells,3.265 FPKM
same,NT5E FPKM,Jurkat T cells,12.217 FPKM
same,NTRK1 FPKM,Jurkat T cells,1.657 FPKM
same,ODC1 FPKM,Jurkat T cells,374.309 FPKM
same,OPTN FPKM,Jurkat T cells,14.333 FPKM
same,OSBPL5 FPKM,Jurkat T cells,3.123 FPKM
same,PAM FPKM,Jurkat T cells,1.934 FPKM
same,PCNA-AS1 FPKM,Jurkat T cells,71.806 FPKM
same,PDCD1 FPKM,Jurkat T cells,1.974 FPKM
same,PDGFA FPKM,Jurkat T cells,8.169 FPKM
same,PDGFC FPKM,Jurkat T cells,2.913 FPKM
same,PDIA6 FPKM,Jurkat T cells,128.39 FPKM
same,PDLIM1 FPKM,Jurkat T cells,5.135 FPKM
same,PELI2 FPKM,Jurkat T cells,8.166 FPKM
same,PEX5L FPKM,Jurkat T cells,1.299 FPKM
same,PHACTR2 FPKM,Jurkat T cells,2.791 FPKM
same,PHLDB2 FPKM,Jurkat T cells,3.404 FPKM
same,PI16 FPKM,Jurkat T cells,9.625 FPKM
same,PKIG FPKM,Jurkat T cells,11.17 FPKM
same,PKM FPKM,Jurkat T cells,1838.428 FPKM
same,PLAC8 FPKM,Jurkat T cells,1.896 FPKM
same,PLEC FPKM,Jurkat T cells,25.453 FPKM
same,PLS3 FPKM,Jurkat T cells,0.37 FPKM
same,POTEE FPKM,Jurkat T cells,1.196 FPKM
same,POU2AF1 FPKM,Jurkat T cells,2.971 FPKM
same,POU2F2 FPKM,Jurkat T cells,4.109 FPKM
same,PPIF FPKM,Jurkat T cells,106.533 FPKM
same,PPP1R15A FPKM,Jurkat T cells,76.265 FPKM
same,PPP1R16B FPKM,Jurkat T cells,26.306 FPKM
same,PRDM8 FPKM,Jurkat T cells,40.783 FPKM
same,PRNP FPKM,Jurkat T cells,41.922 FPKM
same,PSMB10 FPKM,Jurkat T cells,125.268 FPKM
same,PTPN6 FPKM,Jurkat T cells,20.806 FPKM
same,PTPN7 FPKM,Jurkat T cells,78.61 FPKM
same,PXYLP1 FPKM,Jurkat T cells,4.92 FPKM
same,QPRT FPKM,Jurkat T cells,10.818 FPKM
same,RAB37 FPKM,Jurkat T cells,1.369 FPKM
same,RASGRP1 FPKM,Jurkat T cells,3.909 FPKM
same,RASGRP2 FPKM,Jurkat T cells,2.335 FPKM
same,RB1 FPKM,Jurkat T cells,49.538 FPKM
same,RCBTB2 FPKM,Jurkat T cells,7.77 FPKM
same,RCOR2 FPKM,Jurkat T cells,1.298 FPKM
same,RGS2 FPKM,Jurkat T cells,3.39 FPKM
same,RHOU FPKM,Jurkat T cells,1.378 FPKM
same,RNF19A FPKM,Jurkat T cells,12.101 FPKM
same,RNF212 FPKM,Jurkat T cells,1.401 FPKM
same,RORA FPKM,Jurkat T cells,1.998 FPKM
same,RRAS2 FPKM,Jurkat T cells,20.023 FPKM
same,RTN4R FPKM,Jurkat T cells,1.548 FPKM
same,RUNX1 FPKM,Jurkat T cells,28.867 FPKM
same,RUNX3 FPKM,Jurkat T cells,28.166 FPKM
same,SASH3 FPKM,Jurkat T cells,46.514 FPKM
same,SBK1 FPKM,Jurkat T cells,5.945 FPKM
same,SCG2 FPKM,Jurkat T cells,86.711 FPKM
same,SCHIP1 FPKM,Jurkat T cells,1.333 FPKM
same,SEPT3 FPKM,Jurkat T cells,0.994 FPKM
same,SEPT6 FPKM,Jurkat T cells,44.841 FPKM
same,SEPT9 FPKM,Jurkat T cells,39.741 FPKM
same,SERINC5 FPKM,Jurkat T cells,3.312 FPKM
same,SERPINB8 FPKM,Jurkat T cells,23.508 FPKM
same,SERPINE2 FPKM,Jurkat T cells,3.911 FPKM
same,SERTAD1 FPKM,Jurkat T cells,14.426 FPKM
same,SGK1 FPKM,Jurkat T cells,105.258 FPKM
same,SH2D1A FPKM,Jurkat T cells,16.781 FPKM
same,SH2D2A FPKM,Jurkat T cells,22.586 FPKM
same,SH3TC1 FPKM,Jurkat T cells,1.895 FPKM
same,SIVA1 FPKM,Jurkat T cells,51.964 FPKM
same,SLAMF1 FPKM,Jurkat T cells,0.275 FPKM
same,SLAMF7 FPKM,Jurkat T cells,3.544 FPKM
same,SLAMF8 FPKM,Jurkat T cells,5.828 FPKM
same,SLC22A1 FPKM,Jurkat T cells,42.379 FPKM
same,SLC27A2 FPKM,Jurkat T cells,41.908 FPKM
same,SLC29A4 FPKM,Jurkat T cells,1.658 FPKM
same,SLC35E4 FPKM,Jurkat T cells,1.517 FPKM
same,SLC35G2 FPKM,Jurkat T cells,11.385 FPKM
same,SMAD1 FPKM,Jurkat T cells,3.995 FPKM
same,SMOX FPKM,Jurkat T cells,18.934 FPKM
same,SMPD1 FPKM,Jurkat T cells,18.206 FPKM
same,SORBS1 FPKM,Jurkat T cells,0.511 FPKM
same,SOX4 FPKM,Jurkat T cells,55.775 FPKM
same,SPINT1 FPKM,Jurkat T cells,1.712 FPKM
same,SPRY1 FPKM,Jurkat T cells,4.901 FPKM
same,SPRY4 FPKM,Jurkat T cells,7.991 FPKM
same,SPSB1 FPKM,Jurkat T cells,9.593 FPKM
same,SPTBN2 FPKM,Jurkat T cells,2.053 FPKM
same,SRGN FPKM,Jurkat T cells,9.743 FPKM
same,SSBP2 FPKM,Jurkat T cells,5.549 FPKM
same,ST3GAL6 FPKM,Jurkat T cells,5.239 FPKM
same,STAT2 FPKM,Jurkat T cells,36.117 FPKM
same,STAT3 FPKM,Jurkat T cells,74.439 FPKM
same,STAU2 FPKM,Jurkat T cells,5.719 FPKM
same,STMN3 FPKM,Jurkat T cells,7.407 FPKM
same,STX1A FPKM,Jurkat T cells,13.882 FPKM
same,SYK FPKM,Jurkat T cells,6.222 FPKM
same,TAGAP FPKM,Jurkat T cells,8.731 FPKM
same,TAL1 FPKM,Jurkat T cells,18.466 FPKM
same,TAP2 FPKM,Jurkat T cells,6.702 FPKM
same,TAPBPL FPKM,Jurkat T cells,20.693 FPKM
same,TBC1D4 FPKM,Jurkat T cells,13.191 FPKM
same,TBC1D5 FPKM,Jurkat T cells,3.021 FPKM
same,TBKBP1 FPKM,Jurkat T cells,22.205 FPKM
same,TCF3 FPKM,Jurkat T cells,36.607 FPKM
same,TCF7 FPKM,Jurkat T cells,11.184 FPKM
same,TCF12 FPKM,Jurkat T cells,29.903 FPKM
same,TDRD9 FPKM,Jurkat T cells,1.888 FPKM
same,TGFBR2 FPKM,Jurkat T cells,36.254 FPKM
same,THEM6 FPKM,Jurkat T cells,2.542 FPKM
same,THEMIS FPKM,Jurkat T cells,35.627 FPKM
same,TIAF1 FPKM,Jurkat T cells,9.375 FPKM
same,TIAM1 FPKM,Jurkat T cells,9.551 FPKM
same,TIAM2 FPKM,Jurkat T cells,0.301 FPKM
same,TLE1 FPKM,Jurkat T cells,1.647 FPKM
same,TMCC3 FPKM,Jurkat T cells,7.278 FPKM
same,TNFAIP3 FPKM,Jurkat T cells,35.424 FPKM
same,TNFRSF10B FPKM,Jurkat T cells,36.431 FPKM
same,TNFSF10 FPKM,Jurkat T cells,49.452 FPKM
same,TNFSF14 FPKM,Jurkat T cells,4.255 FPKM
same,TPM4 FPKM,Jurkat T cells,178.336 FPKM
same,TPST2 FPKM,Jurkat T cells,29.147 FPKM
same,TRAF3IP3 FPKM,Jurkat T cells,11.237 FPKM
same,TRIB1 FPKM,Jurkat T cells,4.108 FPKM
same,TRIM21 FPKM,Jurkat T cells,42.08 FPKM
same,TTLL1 FPKM,Jurkat T cells,3.295 FPKM
same,UBE2L6 FPKM,Jurkat T cells,167.347 FPKM
same,UHRF1 FPKM,Jurkat T cells,6.903 FPKM
same,VAMP1 FPKM,Jurkat T cells,14.752 FPKM
same,VAT1 FPKM,Jurkat T cells,40.336 FPKM
same,VAV1 FPKM,Jurkat T cells,22.182 FPKM
same,WARS FPKM,Jurkat T cells,112.259 FPKM
same,WDR76 FPKM,Jurkat T cells,8.215 FPKM
same,XCL1 FPKM,Jurkat T cells,1.144 FPKM
same,XCL2 FPKM,Jurkat T cells,2.074 FPKM
same,XIRP1 FPKM,Jurkat T cells,13.281 FPKM
same,XRCC6BP1 FPKM,Jurkat T cells,9.204 FPKM
same,YPEL1 FPKM,Jurkat T cells,4.38 FPKM
same,ZFP36L1 FPKM,Jurkat T cells,136.279 FPKM
same,ZFP36L2 FPKM,Jurkat T cells,9.774 FPKM
same,ZNF280D FPKM,Jurkat T cells,2.132 FPKM
same,ZNF367 FPKM,Jurkat T cells,2.274 FPKM
same,ZNF480 FPKM,Jurkat T cells,6.823 FPKM
same,ZNF521 FPKM,Jurkat T cells,1.965 FPKM
same,ZNF652 FPKM,Jurkat T cells,2.469 FPKM
same,ZNF704 FPKM,Jurkat T cells,0.183 FPKM
same,ZNF827 FPKM,Jurkat T cells,1.372 FPKM
same,ZNFX1 FPKM,Jurkat T cells,19.096 FPKM
same,ZP4 FPKM,Jurkat T cells,5.182 FPKM
same,ZYX FPKM,Jurkat T cells,85.489 FPKM
same,ADORA2A FPKM,,1.475 FPKM
same,AGK FPKM,,14.306 FPKM
same,ARHGEF3 FPKM,,8.674 FPKM
same,ASAP1 FPKM,,9.052 FPKM
same,ATG14 FPKM,,11.252 FPKM
same,ATP6V1B2 FPKM,,60.661 FPKM
same,BCL2L1 FPKM,,41.852 FPKM
same,C3 FPKM,,1.329 FPKM
same,C10orf54 FPKM,,0.487 FPKM
same,CABP1 FPKM,,1.689 FPKM
same,CCDC64 FPKM,,11.039 FPKM
same,CCL1 FPKM,,0.415 FPKM
same,CCL3 FPKM,,0.502 FPKM
same,CCL3L1 FPKM,,0.079 FPKM
same,CCL3L3 FPKM,,0.079 FPKM
same,CCL4 FPKM,,4.062 FPKM
same,CCL4L1 FPKM,,0.328 FPKM
same,CCL4L2 FPKM,,0.328 FPKM
same,CCL20 FPKM,,1.279 FPKM
same,CCND2 FPKM,,0.99 FPKM
same,CD27-AS1 FPKM,,4.613 FPKM
same,CD27 FPKM,,3.4 FPKM
same,CD55 FPKM,,12.082 FPKM
same,CD70 FPKM,,7.606 FPKM
same,CD97 FPKM,,21.496 FPKM
same,CD200 FPKM,,0.094 FPKM
same,COL27A1 FPKM,,5.729 FPKM
same,CREB5 FPKM,,1.966 FPKM
